Data set [1] has as its target T1, rat intestinal sucrase (Rattus norvegicus, UniProt P23739).
T1 construct: rat small intestinal brush border membrane vesicles were first prepared; from tissue; host or cells: rat small intestine, brush border membrane vesicles
The data set is described as follows: In vitro α-glucosidase inhibition assay, rat intestinal sucrase. The class given is biochemical. Here is the method:
(§1) The testing method previously described was modified and used. Thus, rat small intestinal brush border membrane vesicles were first prepared, and its suspension in 0.1 M maleate buffer (pH = 6.0) was used as small intestinal α-glucosidases of maltase and sucrase. A test compound was dissolved in dimethylsulfoxide (DMSO), and the resulting solution was diluted with 0.1 M maleate buffer to prepare the test compound solution (concentration of DMSO: 10%). The substrate solution in maleate buffer ([…], 50 μL), a test compound solution (25 μL), and the enzyme solution (25 μL) were mixed and incubated at 37 °C for 30 min. After incubation, the solution was immediately heated by boiling water for 2 min to stop the reaction, and the solution was mixed with water (150 μL). Glucose concentration was determined by the glucose-oxidase method. […] The IC50 value was determined graphically by a plot of percent inhibition versus log of the test compound.

In data set [2] the target is rat intestinal maltase. The settings on record: read-out: IC50 against maltase (converted), cited from earlier work.
Data set [3] concerns the target T1, rat intestinal sucrase. As to conditions: literature value; read-out: IC50 against sucrase (converted); cited from earlier work.
Data set [4] has as its target rat intestinal maltase. Put plainly: In vitro α-glucosidase inhibition assay, rat intestinal maltase. The class given is biochemical. The settings on record: for IC50: rat small intestinal brush border membrane vesicles, maltose substrate, mean ± SD (n = 3), read-out: IC50 against maltase. The protocol: as §1
Data set [5] deals with HELF, a human embryonic lung fibroblast cell line. The data set is described as follows: MTT cytotoxicity assay on HELF cells. It counts as cell-based. The settings on record: for IC50: Homo sapiens, HELF, read-out: IC50 against normal cell line HELF; for cytotoxicity (MTT assay): different cell lines. Here is the method:
(§2) The cytotoxicity of selected sulfonium salts (20a, 20c, and 10) was then evaluated via the 3-[4,5-dimethylthiazol-2-yl]-2,5-diphenyl-tetrazolium bromide (MTT) assay against different cell lines.
Briefly, the HELF-adherent cells were cultured in a 96-well plate overnight in a CO2 environment at 37 °C. Supernatant was removed, and 100 μL serially diluted compounds with complete medium DMEM supplemented with 10% (v/v) fetal bovine serum, penicillin (100 units/mL), and streptomycin (100 μg/mL) were added to each well. After the incubation, the culture medium was aspirated carefully, and 50 μL of MTT solution (2mg/mL PBS) was added to each well and further incubated for 4h. After this, MTT solution was aspirated, and cells were PBS-washed once, and 100 μL of DMSO was added to dissolve the blue insoluble MTT formazan produced by the action of mitochondrial dehydrogenase. The plate was agitated at room temperature for 15 min and then read at 570 nm by using a microplate reader. The percentage of viable cells was calculated as the relative ratio of optical densities.

A further data set relates to Primary Hepatocyte. The data set is described as follows: Cytotoxicity against Primary Hepatocyte. The class given is cell-based. Here is the method: as §2
(§3) Compounds HELF LO2 Primary Hepatocyte
(§4) (1 picture or pasted object on this page, not shown here)

The subject of data set [6] is rat intestinal maltase. The data set is described as follows: Inhibition-kinetic study (Lineweaver–Burk), maltase. It counts as biochemical. As to conditions: for type of inhibition, maltase: Lineweaver–Burk plots; for Ki Maltase (Km = 3.0 mM): small intestinal α-glucosidase, Lineweaver–Burk. Here is the method:
(§5) In order to explore the inhibitory mechanism of the α-glucosidase by this family of compounds, enzyme kinetic assays were conducted on 20a, 20c, and 10, followed by a detailed kinetic analysis using the Lineweaver–Burk plots. (Figure 3) The small intestinal brush border membrane vesicles were incubated with varying concentrations of maltose (3.27 mg/mL) for maltase assays and sucrose (52.37 mg/mL) for sucrase assays.
(§6) For kinetic analyses of maltase and sucrase by compounds (20a, 20c, and 10), the enzyme and test samples (1.0 mg/mL for maltase and 0.2 mg/mL for sucrase) were incubated with increasing concentrations of maltose (2.5, 5, 10, 20, 50, 100 μM) and sucrose (5, 10, 20, 50, 100, 1000 μM) at 37 °C for 30 min. The tube was immediately immersed in boiling water for 2 min to stop the reaction, then cooled with water. The glucose concentration was determined by the glucose-oxidase method. […] The Lineweaver–Burk equation follows as: 1/V=Km/Vmax×[…]
(§7) Ki values for each inhibitor were determined by the equation: Ki=[I]×Km/[[…]−Km]

Another data set deals with LO2. Put plainly: Cytotoxicity against normal cell line LO2. It counts as cell-based. As to conditions: Homo sapiens, L02. Here is the method: as §2, §3, §4
For data set [7], the target named is T1, rat intestinal sucrase. The data set is described as follows: Inhibition-kinetic study (Lineweaver–Burk), sucrase. The settings on record: for type of inhibition, sucrase: Lineweaver–Burk plots. The class given is biochemical. Here is the method:
as §5, §6, §7

Another data set relates to maltose-loaded mice. The data set is described as follows: Maltose loading test (hypoglycemic effect). It counts as in vivo, ICR mice. The settings on record: maltose loading 2.0 g/kg, 1.0 mpk; for Declined Rate of Blood Glucose Levels, 60 min / Declined Rate of AUC: 1 mg/kg. The protocol: A maltose loading test on compounds 10, 20c, neoponkoranol, and positive control (voglibose) was conducted to further evaluate their in vivo hypoglycemic effects against maltase.
The animal experimental protocols in this study were approved by the Experimental Animal Center of Shanghai Institute of Materia Medica (Shanghai, China). Male ICR (Institute of Cancer Research) mice (29−33 g) after an overnight fast were used for acute maltose and sucrose loading tests. […] A control group was loaded with distillation−distillation water. In the sucrose loading test, sucrose (2.5 g/kg of body weight) and the inhibitor miglitol were dissolved in distillation−distillation water and administered to the mice via a stomach tube. A control group was loaded with distillation−distillation water. Blood samples for glucose measurements were obtained from the tail vein at 0, 15, 30, 60, and 120 min after maltose and sucrose loading. The blood glucose levels were measured by a portable kit, StatStrip Xpress (Nova Biomedical Co., Ltd., Waltham, MA, USA). The AUC over was calculated by the trapezoidal method.

For a further data set, the system named is sucrose-loaded mice. Put plainly: Sucrose loading test (hypoglycemic effect). The settings on record: sucrose loading […] p.o. It counts as in vivo, ICR mice. The protocol:
Research has shown a strong association between the 2 h postprandial blood glucose level and the risk of cardiovascular events, diabetic microvascular complications such as retinopathy, and the progression of macrovascular diseases. […] Considering this underlying pathological process, α-glucosidase inhibitors, which efficiently regulate postprandial glucose fluctuations, hold significant therapeutic promise for alleviating diabetes-related complications. […] Subsequently, doses were reduced to 1.0 mg/kg.
The animal experimental protocols in this study were approved by the Experimental Animal Center of Shanghai Institute of Materia Medica (Shanghai, China). Male ICR (Institute of Cancer Research) mice (29−33 g) after an overnight fast were used for acute maltose and sucrose loading tests. In the maltose loading test, maltose ([…] of body weight) and the inhibitors and voglibose were dissolved in distillation−distillation water and administered to the mice via a stomach tube. A control group was loaded with distillation−distillation water. In the sucrose loading test, sucrose (2.5 g/kg of body weight) and the inhibitor miglitol were dissolved in distillation−distillation water and administered to the mice via a stomach tube. A control group was loaded with distillation−distillation water. Blood samples for glucose measurements were obtained from the tail vein at 0, 15, 30, 60, and 120 min after maltose and sucrose loading. The blood glucose levels were measured by a portable kit, StatStrip Xpress (Nova Biomedical Co., Ltd., Waltham, MA, USA). The AUC over was calculated by the trapezoidal method.

Setting [8] is: rat small intestinal brush border membrane vesicles, sucrose substrate, mean ± SD (n = 3), read-out: IC50 against sucrase.

The structures appear in SMILES notation. Converted amounts (≈) assume the structure as drawn. “Also recorded” adds a separate entry of the source. Read-outs that look alike come from different tables or passages of the source.

These results are taken from PMC12250965, “Design and Synthesis of Sulfonium and Selenonium Derivatives Bearing 3′,5′-O-Benzylidene Acetal Side Chain Structure as Potent α-Glucosidase Inhibitors” (Molecules, 2025).

T1 sequence (P23739 whole entry): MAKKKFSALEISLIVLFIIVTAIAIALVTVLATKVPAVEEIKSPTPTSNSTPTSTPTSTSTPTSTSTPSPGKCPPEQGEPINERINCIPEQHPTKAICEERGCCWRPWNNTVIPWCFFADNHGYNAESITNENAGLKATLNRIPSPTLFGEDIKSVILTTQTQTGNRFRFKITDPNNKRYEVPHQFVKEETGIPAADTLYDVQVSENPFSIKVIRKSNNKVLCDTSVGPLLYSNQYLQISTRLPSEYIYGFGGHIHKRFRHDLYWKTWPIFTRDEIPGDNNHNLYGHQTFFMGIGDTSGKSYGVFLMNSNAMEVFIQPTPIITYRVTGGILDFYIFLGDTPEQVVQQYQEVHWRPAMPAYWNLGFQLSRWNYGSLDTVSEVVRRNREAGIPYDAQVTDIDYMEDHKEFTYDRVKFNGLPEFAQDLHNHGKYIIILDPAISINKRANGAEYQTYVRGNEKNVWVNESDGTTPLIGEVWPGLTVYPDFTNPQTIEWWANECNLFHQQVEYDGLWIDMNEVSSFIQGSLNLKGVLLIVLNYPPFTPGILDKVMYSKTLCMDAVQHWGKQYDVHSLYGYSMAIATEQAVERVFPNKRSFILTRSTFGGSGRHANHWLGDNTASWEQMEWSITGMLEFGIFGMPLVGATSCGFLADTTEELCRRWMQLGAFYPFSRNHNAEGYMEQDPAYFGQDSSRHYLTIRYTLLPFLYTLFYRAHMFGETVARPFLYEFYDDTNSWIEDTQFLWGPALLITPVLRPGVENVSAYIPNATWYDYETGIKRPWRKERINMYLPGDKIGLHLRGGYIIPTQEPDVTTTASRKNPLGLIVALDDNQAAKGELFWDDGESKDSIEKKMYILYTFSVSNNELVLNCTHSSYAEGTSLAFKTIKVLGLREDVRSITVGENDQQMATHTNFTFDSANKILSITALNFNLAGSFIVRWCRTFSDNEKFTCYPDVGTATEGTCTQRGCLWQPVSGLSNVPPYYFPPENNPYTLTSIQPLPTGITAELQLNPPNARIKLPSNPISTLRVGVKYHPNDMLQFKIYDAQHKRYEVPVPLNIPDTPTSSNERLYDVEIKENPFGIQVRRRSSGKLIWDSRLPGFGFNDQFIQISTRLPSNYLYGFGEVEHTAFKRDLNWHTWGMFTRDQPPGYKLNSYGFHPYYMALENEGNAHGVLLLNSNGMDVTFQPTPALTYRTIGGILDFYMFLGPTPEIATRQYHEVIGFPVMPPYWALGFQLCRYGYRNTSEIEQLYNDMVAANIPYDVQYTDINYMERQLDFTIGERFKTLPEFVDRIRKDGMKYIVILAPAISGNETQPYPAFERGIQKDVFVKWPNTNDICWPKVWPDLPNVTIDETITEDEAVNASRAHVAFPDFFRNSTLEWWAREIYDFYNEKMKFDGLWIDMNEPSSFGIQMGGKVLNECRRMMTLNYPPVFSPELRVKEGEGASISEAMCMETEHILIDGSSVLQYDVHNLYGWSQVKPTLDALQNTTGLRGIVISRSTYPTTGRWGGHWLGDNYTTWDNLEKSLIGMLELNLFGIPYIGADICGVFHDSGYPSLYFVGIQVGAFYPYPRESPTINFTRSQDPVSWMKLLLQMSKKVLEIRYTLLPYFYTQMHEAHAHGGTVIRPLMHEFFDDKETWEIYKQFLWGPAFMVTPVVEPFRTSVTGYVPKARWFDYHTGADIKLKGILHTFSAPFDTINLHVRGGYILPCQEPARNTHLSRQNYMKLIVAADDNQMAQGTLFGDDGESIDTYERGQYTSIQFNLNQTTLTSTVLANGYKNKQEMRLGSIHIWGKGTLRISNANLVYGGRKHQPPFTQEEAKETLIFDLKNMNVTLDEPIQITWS

`OCC1C(O)C(O)C[S+]1CC(O)C1OC(c2ccccc2F)OCC1O` [19n, 1,4-Dideoxy-1,4-{(R)-[5-deoxy-1,3-O-(o-fluorophenylmethylene)-D-arabinitol-5-yl]episulfoniumylidene}-D-arabinitol chloride]: the half-inhibitory concentration (IC50) at rat intestinal sucrase [1] (setting [8]) is 550 nM; at rat intestinal maltase [2] (literature value) it was 400 nM; on rat intestinal sucrase [3], 840 nM; on rat intestinal maltase [4], 420 nM.

In the case of `OC[C@@H]1[C@@H](O)[C@H](O)C[Se@+]1C[C@@H](O)[C@H]1OC(c2cccc(Cl)c2Cl)OC[C@H]1O.[Cl-]` (stereo partly drawn) [20a, (1S,2R,3S,4S)-1-((2S)-2-((4S,5R)-2-(2,3-Dichlorophenyl)-5-hydroxy-1,3-dioxan-4-yl)-2-hydroxyethyl)-3,4-dihydroxy-2-(hydroxymethyl)tetrahydro-1H-selenophen-1-ium chloride], the concentration for half-maximal inhibition (IC50) was 190 ± 20 nM on rat intestinal sucrase [1]; more than 500 µM in data set [5]; more than 500 µM with Primary Hepatocyte; 330 ± 150 nM on rat intestinal maltase [4]; more than 500 µM in the data set on LO2. In data set [5], the “cytotoxicity (MTT assay)” value is reported as “non-toxic”. In the data set with rat intestinal maltase [6], the “type of inhibition, maltase” value is given as “fully competitive”. For the same compound, the “Ki Maltase (Km = 3.0 mM)” value at rat intestinal maltase [6] was 0.94 µg/mL. For the same compound, the Ki at rat intestinal sucrase [7] is 934 nM. Also, the “type of inhibition, sucrase” value at rat intestinal sucrase [7] is recorded as “fully competitive”.

`OC[C@@H]1[C@@H](O)[C@H](O)C[Se@+]1C[C@@H](O)[C@H]1OC(c2cc(Cl)ccc2Cl)OC[C@H]1O.[Cl-]` (stereo partly drawn) [20c, (1S,2R,3S,4S)-1-((2S)-2-((4S,5R)-2-(2,5-Dichlorophenyl)-5-hydroxy-1,3-dioxan-4-yl)-2-hydroxyethyl)-3,4-dihydroxy-2-(hydroxymethyl)tetrahydro-1H-selenophen-1-ium chloride]: the concentration for half-maximal inhibition (IC50) against rat intestinal sucrase [1] was 50 ± 20 nM. At rat intestinal sucrase [1] (IC50 ratio vs acarbose), the “fold greater potency than acarbose, sucrase” value is listed as 44 fold. In the data set on maltose-loaded mice, the “Declined Rate of Blood Glucose Levels, 15 min” value (“Declined Rate … 15 min” for short) amounted to 45.8%; the “Declined Rate of Blood Glucose Levels, 30 min” value (“Declined Rate … 30 min” for short) is on record as 47.4%; the “Declined Rate of Blood Glucose Levels, 60 min” value (“Declined Rate … 60 min” for short) is 43.5%; the “Declined Rate of AUC” value was 40.2%. Also, in [5], the 50% inhibitory concentration (IC50) is more than 500 µM and the “cytotoxicity (MTT assay)” value is “low toxicity; also recorded: non-toxic”. The 50% inhibitory concentration (IC50) in the data set with Primary Hepatocyte is more than 500 µM. Further, in the data set with rat intestinal maltase [6], the “type of inhibition, maltase” value is “fully competitive” and the “Ki Maltase (Km = 3.0 mM)” value amounted to 0.67 µg/mL. Also, in the data set on rat intestinal maltase [4] (IC50 ratio vs acarbose), the “fold greater potency than acarbose, maltase” value is given as 25 fold. Further, the 50% inhibitory concentration (IC50) on rat intestinal maltase [4] was found to be 140 ± 50 nM. In addition, in the data set with LO2, the half-maximal inhibitory concentration (IC50) was more than 500 µM. Further, at rat intestinal sucrase [7], the inhibition constant Ki is 381 nM and the “type of inhibition, sucrase” value is listed as “fully competitive”. Besides, in the data set on sucrose-loaded mice (1.0 mpk), the “Declined Rate … 15 min” value is on record as 40.0%; the “Declined Rate … 30 min” value is given as 40.3%; the “Declined Rate … 60 min” value is on record as 38.2%; the “Declined Rate of AUC” value was 34.00%. In the data set on sucrose-loaded mice (10.0 mpk, 10 mg/kg), the “Declined Rate … 15 min” value is 48.6%; the “Declined Rate … 30 min” value is recorded as 52.8%; the “Declined Rate … 60 min” value is 48.1%; the “Declined Rate of AUC” value was determined as 46.4%.

In the case of `C[C@H]1O[C@H](O[C@H]2[C@H](O)[C@@H](O)[C@@H](O[C@H]3[C@H](O)[C@@H](O)C(O)O[C@@H]3CO)O[C@@H]2CO)[C@H](O)[C@@H](O)[C@@H]1N[C@H]1C=C(CO)[C@@H](O)[C@H](O)[C@H]1O` (stereo partly shown) [acarbose], on rat intestinal maltase [6], the “Ki Maltase (Km = 3.0 mM)” value was found to be 1.98 µg/mL (≈ 3.07 µM). For the same compound, the IC50 on rat intestinal maltase [2] (literature value ^[a]) was 3200 nM. For the same compound, on rat intestinal maltase [4], the IC50 is 3500 nM. In the data set with sucrose-loaded mice (20.0 mpk, 20 mg/kg), the “Declined Rate … 15 min” value was found to be 45.7%; the “Declined Rate … 30 min” value was 48.4%; the “Declined Rate of AUC” value was determined as 40.5%. Besides, the “Declined Rate … 60 min” value with sucrose-loaded mice (20.0 mpk) amounted to 44.3%.

As for `OCC(CO)N[C@H]1C[C@](O)(CO)[C@@H](O)[C@H](O)[C@H]1O` [voglibose], the concentration for half-maximal inhibition (IC50) on rat intestinal sucrase [1] (setting [8]) was determined as 350 nM. Further, in the data set with maltose-loaded mice, the “Declined Rate … 15 min” value was 49.2%; the “Declined Rate … 30 min” value is on record as 53.7%; the “Declined Rate … 60 min” value is reported as 40.1%; the “Declined Rate of AUC” value amounted to 39.8%. The 50% inhibitory concentration (IC50) at rat intestinal maltase [2] (literature value ^[a]) was 1500 nM. Moreover, the IC50 on rat intestinal maltase [4] is 1450 nM.
